According to PubChem BioAssay (NCI):
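1) Cells in 96-well plates. 2) Compound, 48 h, 5 concentrations. 3) Linear interpolation between surrounding doses. 4) Unreached endpoint = highest concentration. GI50 is the concentration that inhibits growth by half. At the TGI there is no net growth.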 *1 amine or outer side, *2 acyl side, *3 side chain or, on linkers, in order; H or OH if unused. Where a SMILES comes first, the peptide text is derived from it. CO = O=C([*:1])[*:2]

Legend:
Assay in all cases: NCI anticancer screen, dose series, 48 h
ACHN renal = tested on: ACHN renal
CCRF-CEM leukemia = tested on: CCRF-CEM leukemia
HCT-15 colon = tested on: HCT-15 colon
HOP-92 NSCLC = tested on: HOP-92 NSCLC
K-562 leukemia = tested on: K-562 leukemia
RXF 393 renal = tested on: RXF 393 renal
SN12C renal = tested on: SN12C renal
UACC-62 melanoma = tested on: UACC-62 melanoma
MDA-MB-231 breast = tested on: MDA-MB-231 breast
PC-3 prostate = tested on: PC-3 prostate

Structure (SMILES)	TGI (ACHN renal) [µM]	TGI (CCRF-CEM leukemia) [µM]	TGI (HCT-15 colon) [µM]	TGI (HOP-92 NSCLC) [µM]	TGI (K-562 leukemia) [µM]	TGI (RXF 393 renal) [µM]	TGI (SN12C renal) [µM]	TGI (UACC-62 melanoma) [µM]	GI50 (ACHN renal) [µM]	GI50 (CCRF-CEM leukemia) [µM]	GI50 (HCT-15 colon) [µM]	GI50 (HOP-92 NSCLC) [µM]	GI50 (K-562 leukemia) [µM]	GI50 (MDA-MB-231 breast) [µM]	TGI (MDA-MB-231 breast) [µM]	GI50 (PC-3 prostate) [µM]	TGI (PC-3 prostate) [µM]	GI50 (SN12C renal) [µM]	GI50 (UACC-62 melanoma) [µM]	GI50 (RXF 393 renal) [µM]
N#Cc1c(C(N)=O)ncn1Cc1ccccc1	> 100	> 100	> 100	> 100	> 100	> 100	> 100	> 100												
COc1ccc2c(c1)C(=O)c1c-2c(N2CCN(C(=O)CN(C)C)CC2)nc2ccccc12	33.2	27.1	32.3	24.2	> 100		27.9	37.3	16	10.7	14.4	5.69	9.17	13.3	28.9	14.4	31.5	13	15.3	
COc1ccc(C2c3cc4c(cc3OC(O)(CO)C2C(=O)O)OCO4)c(OC)c1OC (stereo not drawn) (tested in a mixture with another compound)	> 100	> 100	> 100	> 100	> 100	> 100	> 100	> 100												
C/C=C/CP(=O)(c1ccccc1)c1ccccc1	> 100	> 100	> 100		> 100	> 100	> 100	> 100												
CC1=C([Se]CC(OC(=O)[C@@H](CSSC(C)(C)C)NC(=O)C(C)(C)C)C(=O)NCCCCCC(=O)OCc2ccccc2)C(=O)c2ccccc2C1=O (stereo partly drawn)	4.94		12.9				3.89	3.99	2.16		3.2			1.92	4.23	1.5	3.63	2	1.96	
N#Cc1c(SCc2ccccc2)nc2[nH]c(=S)[nH]c(=S)c2c1-c1ccco1	> 100		> 100	26.2	> 100	> 100	36.1	46.6	> 100		27.6	3.45	24.3	39.9	71.3	0.448	20.5	15.7	21.6	37.9
CC(=O)Oc1cc2c(=O)oc3c(OC(C)=O)c(OC(C)=O)c(OC(C)=O)c4c(=O)oc(c1OC(C)=O)c2c34	> 100	63.3	> 100	96.9	> 100	32	61.1	> 100												
Cn1cc(C(=O)/C(Cl)=C(\Cl)C(=O)O)c2ccccc21	> 100	> 100	> 100		> 100	> 100		> 100												
O=C1CC(c2ccccc2)NCN1 (stereo not drawn)	> 100	> 100	> 100		> 100	> 100	> 100	> 100												
NC(=S)N/N=C1\C(=O)N(c2cccc([N+](=O)[O-])c2)C(=O)C1C(=O)Nc1cccc([N+](=O)[O-])c1 (stereo not drawn)	> 100	> 100	> 100	> 100	> 100	> 100	> 100	> 100												
O=C(CC1(O)C(=O)Nc2ccccc21)c1ccc(O)cc1O (stereo not drawn)	> 100		> 100	> 100	> 100	> 100	> 100	> 100												
c1cncc(-c2cc(-c3cc(-c4cccnc4)n[nH]3)[nH]n2)c1	> 100		> 100	> 100	> 100	> 100	> 100	> 100							> 100		> 100			
CCN(CC)CCCC(C)N/C(c1cccc(OC)c1)=c1\c(=O)[nH]n(-c2c3ccccc3nc3ccccc23)c(=O)\c1=C(/NC(C)CCCN(CC)CC)c1cccc(OC)c1 (stereo not drawn)	2.35	3.93	6.91		5.64	2.55	10.8	3.3	0.508	0.482	1.02		1.41	1.25	3.26	1.2	4.97	1.74	1.69	1.02
CCOC(=O)c1ccc(C(O)CC(=O)OC(C)(C)C)[nH]1 (stereo not drawn)	> 100	88	> 100	55.8	> 100		62.4	81.3	41.5	29.6	34.4	17.9	52.6	13	> 100	21.3	62	17.4	26.5	
COc1cc(-c2ccc(-[n+]3nc(-c4ccc([N+](=O)[O-])cc4)nn3-c3ccc([N+](=O)[O-])cc3)c(OC)c2)ccc1-[n+]1nc(-c2ccc([N+](=O)[O-])cc2)nn1-c1ccc([N+](=O)[O-])cc1	19.2	> 100	49.5		> 44.6	6.08	40.3	> 82.8	4.16	1.08	6.17		3.39	8.6	34.7	12.8	36.5	7.05	22	2.25
COC1=CC(C)C2C[C@H]3O[C@H](O)C[C@H]4C(C)C(=O)C(O)C([C@@]2(C)C1=O)[C@@]34C (stereo partly drawn)	> 100	> 100	> 100	> 100	> 100	> 100	> 100	> 100												
COc1ccc(C(=O)O)c2c(=O)c3ccccc3[nH]c12	> 100	> 31.6	> 100	> 100	> 100	> 100	> 100	> 100												

Structure (SMILES)	TGI (ACHN renal) [µM]	TGI (CCRF-CEM leukemia) [µM]	TGI (HCT-15 colon) [µM]	TGI (HOP-92 NSCLC) [µM]	TGI (K-562 leukemia) [µM]	TGI (RXF 393 renal) [µM]	TGI (SN12C renal) [µM]	TGI (UACC-62 melanoma) [µM]	GI50 (ACHN renal) [µM]	GI50 (CCRF-CEM leukemia) [µM]	GI50 (HCT-15 colon) [µM]	GI50 (HOP-92 NSCLC) [µM]	GI50 (K-562 leukemia) [µM]	GI50 (MDA-MB-231 breast) [µM]	TGI (MDA-MB-231 breast) [µM]	GI50 (PC-3 prostate) [µM]	TGI (PC-3 prostate) [µM]	GI50 (SN12C renal) [µM]	GI50 (UACC-62 melanoma) [µM]	GI50 (RXF 393 renal) [µM]
CC1(C)CC2=NOS3=C2C(=NO3)C1c1ccccn1 (stereo not drawn)	> 100	78.4	> 100	> 100	62.8		> 100	> 100							> 100		> 100			
CO/C=C/c1cc2c(cc1C(OC)OC)OCO2	> 100	> 100		> 100	> 100	> 100	> 100	69.1												
CC1CC(C)C(=O)C(C(=O)CC2CC(=O)NC2=O)C1 (stereo not drawn)	> 100	> 100		> 100	> 100	> 100	> 100	> 100												
CC(=O)[CH-]C(C)=O.CC(=O)[CH-]C(C)=O.CC(=O)[CH-]C(C)=O.[Cl-].[Hf+4]	> 100	> 100	> 100	> 100	> 100	> 100	> 100	> 100	> 100	> 100	> 100	> 100	> 100					> 100	> 100	> 100
CCN(CC)CCCN1C(=O)c2c(c(C)c3c(oc4cc(O)ccc43)c2C)C1=O	3.05	1.76	3.39	3.02	0.464	3.24	3.41	3.44	1.68	0.359	1.77	1.48	0.188	1.81	3.47			1.81	1.92	1.54
CC(=O)O[C@H]1C(=O)[C@@]2(C)[C@H]([C@H](OC(=O)c3ccccc3)[C@]3(O)C[C@H](OC(=O)[C@H](OC(=O)CCC(=O)OC4CCC(S/N=C(N)/N=C(\N)N(C)C)CC4)[C@@H](NC(=O)c4ccccc4)c4ccccc4)C(C)=C1C3(C)C)[C@]1(OC(C)=O)CO[C@@H]1C[C@@H]2O (stereo partly drawn)	> 50	> 50	> 50		> 50	> 50	> 50	> 25.5	0.11	0.0155	0.269		0.00692	0.0249	> 31.4	0.0155	> 50	0.0325	< 0.0155	0.0135
CC1(C)OC(=O)C=C(O)O1.CC1(C)OC(=O)C=C(O)O1.CCO.Oc1ccc2c(c1)CCC2.[Ti]	> 100	> 100	> 100		> 100	> 100	> 100	> 100	> 100	> 100	> 100		> 100					> 100	> 100	> 100
Cc1ccc(NC(=O)/C(=N/NC(=O)CC#N)C2C(=O)N(c3ccccc3)N=C2N)cc1C (stereo not drawn)	> 100	> 100	> 100	> 100	> 100	> 100	> 100	> 100												
CCC(=O)Nc1ccc2c(c1)CN1C(=O)c3ccccc3C1=N2	> 100		> 100	> 100			> 100	> 100	> 100		> 100	> 100		> 100	> 100	> 100	> 100	> 100	> 100	
COc1cc(/C=C/C(=O)CC(=O)/C=C/c2ccc(OC(=O)CCNC34CC5CC(CC(C5)C3)C4)c(OC)c2)ccc1OC(=O)CCNC12CC3CC(CC(C3)C1)C2	23.6		17.6	17.6	> 100		17.8	13	11		4.49	2.64	4.41	3.97	25.3	4.13	21.1	3.32	3.5	
Cc1cc(Nc2nc(N3CCOCC3)nc3ccccc23)n[nH]1	18.5	> 100	> 100	62.8	> 100	6.17	> 100		2.03	4.03	3.54	4.22	5.14	15	> 100			4.23		1.35
O=C(Nc1ccc(N=Nc2ccccc2)cc1)Sc1ccccc1C(=O)O	> 100		> 100		> 100	> 100	> 100	> 100												
CC(C)C(NC(=O)C(CCCN=C(N)N)NC(=O)NC(Cc1ccccc1)C(=O)O)C(=O)NC(C=O)CCCN=C(N)N (stereo not drawn) ({Phe-CO}-Arg-Val-Arg-aldehyde; configuration not given here)	> 5		> 5		> 5		> 5	> 5	> 5		> 5		> 5	> 5	> 5	> 5	> 5	> 5	> 5	
COc1cc2c(cc1OCCCCCN1CCN(c3cc(=O)oc4c(C)c(OC)ccc34)CC1)N=C[C@@H]1CCCN1C2=O	0.256	0.106	4.42	< 0.0141	0.316	< 0.0127	0.0699	0.0147	0.0434	< 0.01	0.552	< 0.01	< 0.01			< 0.01	0.408	< 0.01	< 0.01	< 0.01
NC1=NN(c2ccccc2)C(=O)C1C(=O)C(=O)Nc1cccc(C(F)(F)F)c1 (stereo not drawn)	> 100	> 100	> 100	> 100	> 100		> 100	> 100												
COc1ccc2c(c1)/C(=C/c1c(-c3ccc(C)cc3)nc3sc(C)cn13)C(=O)N2		80.3		60.5	> 100		31.9	32.5		6.84		10.3	4.95	13.3	> 100	4.61	> 100	13.9	13.1	
